“Also recorded” adds a separate entry of the source. Read-outs that look alike come from different tables or passages of the source.
How the values were obtained:
[1] = molecular target: T1, sarcolemmal KATP channels (Oryctolagus cuniculus, UniProt O02822+P82451); assay: Whole-cell patch recording of sarcolemmal KATP current (IKATP); type: cell-based, rabbit; conditions: for activation of IKATP: treatment with diazoxide and 5-HD, FIG. 4
T1 construct: ventricular myocytes were isolated from adult rabbit hearts by conventional enzymatic dissociation; endogenous in cells; host or cells: primary adult rabbit ventricular myocytes
T1 sequence (P82451 whole entry): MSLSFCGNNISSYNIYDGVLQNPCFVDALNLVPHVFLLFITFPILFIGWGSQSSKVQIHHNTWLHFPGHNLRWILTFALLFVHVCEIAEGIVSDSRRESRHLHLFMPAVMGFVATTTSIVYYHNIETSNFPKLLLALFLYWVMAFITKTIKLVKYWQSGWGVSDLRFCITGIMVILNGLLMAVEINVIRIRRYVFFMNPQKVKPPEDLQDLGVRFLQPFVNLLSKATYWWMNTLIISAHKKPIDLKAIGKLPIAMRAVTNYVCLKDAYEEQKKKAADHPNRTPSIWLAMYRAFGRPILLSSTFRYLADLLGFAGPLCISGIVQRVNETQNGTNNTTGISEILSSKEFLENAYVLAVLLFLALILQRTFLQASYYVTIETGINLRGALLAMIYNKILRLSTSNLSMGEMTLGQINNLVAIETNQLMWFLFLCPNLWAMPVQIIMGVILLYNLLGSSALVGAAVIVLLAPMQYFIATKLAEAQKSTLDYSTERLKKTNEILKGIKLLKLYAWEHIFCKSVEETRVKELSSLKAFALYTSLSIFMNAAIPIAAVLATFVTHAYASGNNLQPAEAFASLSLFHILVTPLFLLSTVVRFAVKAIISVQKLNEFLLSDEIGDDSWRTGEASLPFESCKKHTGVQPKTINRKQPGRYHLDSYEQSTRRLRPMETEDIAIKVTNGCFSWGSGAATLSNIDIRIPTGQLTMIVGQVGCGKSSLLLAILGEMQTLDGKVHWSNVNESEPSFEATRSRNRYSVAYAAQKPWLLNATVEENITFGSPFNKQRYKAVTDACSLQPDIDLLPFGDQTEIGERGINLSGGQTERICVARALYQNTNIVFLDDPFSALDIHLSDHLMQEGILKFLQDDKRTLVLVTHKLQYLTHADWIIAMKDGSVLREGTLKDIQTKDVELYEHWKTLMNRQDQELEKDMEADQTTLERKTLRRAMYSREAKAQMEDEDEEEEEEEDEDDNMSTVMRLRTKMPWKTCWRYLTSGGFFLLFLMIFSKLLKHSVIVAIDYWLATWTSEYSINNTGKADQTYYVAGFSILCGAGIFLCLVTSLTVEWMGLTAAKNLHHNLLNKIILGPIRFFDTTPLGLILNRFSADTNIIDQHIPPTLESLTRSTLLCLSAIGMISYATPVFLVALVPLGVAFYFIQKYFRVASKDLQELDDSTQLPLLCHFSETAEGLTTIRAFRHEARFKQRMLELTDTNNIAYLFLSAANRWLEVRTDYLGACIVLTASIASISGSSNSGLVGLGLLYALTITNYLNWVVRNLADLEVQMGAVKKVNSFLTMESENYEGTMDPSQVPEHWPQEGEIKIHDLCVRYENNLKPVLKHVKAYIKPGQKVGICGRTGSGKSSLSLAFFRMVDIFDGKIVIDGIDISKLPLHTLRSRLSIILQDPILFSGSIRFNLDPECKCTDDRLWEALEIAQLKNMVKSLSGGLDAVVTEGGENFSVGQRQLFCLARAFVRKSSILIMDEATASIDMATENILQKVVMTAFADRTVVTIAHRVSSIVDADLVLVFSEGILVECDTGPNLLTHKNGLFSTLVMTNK
T1 sequence (O02822 whole entry): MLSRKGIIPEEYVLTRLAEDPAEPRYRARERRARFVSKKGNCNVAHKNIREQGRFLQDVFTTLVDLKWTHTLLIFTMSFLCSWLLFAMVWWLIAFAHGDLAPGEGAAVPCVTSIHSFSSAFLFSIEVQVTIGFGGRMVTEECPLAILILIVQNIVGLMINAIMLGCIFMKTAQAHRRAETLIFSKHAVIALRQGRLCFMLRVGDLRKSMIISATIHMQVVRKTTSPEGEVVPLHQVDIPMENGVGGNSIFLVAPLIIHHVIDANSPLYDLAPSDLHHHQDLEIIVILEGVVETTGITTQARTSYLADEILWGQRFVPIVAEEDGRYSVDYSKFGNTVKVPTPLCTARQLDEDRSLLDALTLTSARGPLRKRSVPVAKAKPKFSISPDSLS
Excerpt: (§1) In the following Examples, ventricular myocytes were isolated from adult rabbit hearts by conventional enzymatic dissociation, according to Liu, Y., et al., “Synergistic modulation of ATP-sensitive K^+ currents by protein kinase C and adenosine: implications for ischemic preconditioning”, Circ. Res., 1996, 78: 443-454, then washed several times with calcium-free solution. […].
(§2) For whole-cell patch recordings, the internal pipette solution contained (in mM): 120 K-glutamate, 25 KCI, 0.5 MgCl2, 10 K-EGTA, 10 HEPES and 1 MgATP (pH 7.2 with KOH). The external solution included (in mM): 140 NaCl, 5 KCI, 1 CaCl2, 1 MgCl2, and 10 HEPES (pH 7.4 with NaOH). Whole-cell currents were elicited every 6 sec from a holding potential of −80 mV by two consecutive steps to −40 mV (for 100 msec) and 0 mV (for 380 msec). Currents at 0 mV were measured 200 msec into the pulse. Endogenous flavoprotein fluorescence was excited using a xenon arc lamp with a bandpass filter centered at 480 nm, but only during the 100 msec step to −40 mV t to minimize photobleaching. Emitted fluorescence was recorded at 530 nm by a photomultiplier tube and digitized (Digidata 1200, Axon Instruments). (See Paucek, P., et al., “Cardioprotective effect of diazoxide and its interaction with mitochondrial KATP: possible mechanism of cardioprotection”, J. Mol Cell Cardiol, 1997, 29: A199(Abstract)). Relative fluorescence was averaged during the excitation window and calibrated using the values after dinitrophenol (DNP) and sodium cyanide (CN) exposure.

[2] = tested on: mitochondrial flavoprotein oxidation (mitochondrial KATP channels); assay: Flavoprotein fluorescence measurement of mitochondrial redox state in intact ventricular myocytes; type: cell-based, rabbit
Excerpt: as §1, §2

[3] = tested on: rabbit ventricular myocytes; assay: Simulated ischemia (cell pelleting) and cellular injury, trypan blue; type: cell-based; conditions: for cytotoxicity at 50 µM: Oryctolagus cuniculus, Ventricular myocyte, 50 μM diazoxide, read-out: cells killed (% of viable cells prior to ischemia)
Protocol: In the following Examples, the procedure to determine cell injury was modified from […] al. […]., et al., “An in vitro model of myocardial ischemia utilizing isolated adult rat myocytes”, J. Mol. Cell Cardiol, 1990, 22: 165-181. After cell isolation, cells were washed with incubation buffer (in mM): NaCl 119, NaHCO3 25, KH2PO4 1.2, KCl 4.8, MgSO4 1.2, HEPES 10, glucose 11, and supplemented with creatine, taurine and amino acids (pH 7.4). Calcium was added into the buffer stepwise (0.25 mM every 5 minutes) to a final concentration of 1 mM. An aliquot of each cell suspension (0.5 ml) was placed in a 0.5 ml microcentrifuge tube and centrifuged for 20 seconds into a pellet. Each pellet occupied a volume of about 0.2 ml. Approximately 0.25 ml of excess supernatant was removed to leave a thin fluid layer above the pellet, and 0.2 ml of mineral oil was layered on the top of the pellet to exclude gaseous diffusion. After 60 min and 120 min of pelleting, 5 μl of cell pellet were sampled through the oil layer and mixed with 75 µl of 85 mOsm hypotonic staining solution (in mM): […] Microscopic examination was performed 2-5 min after mixing to determine the permeability of the cells to trypan blue. Cells permeable to trypan blue were counted as dead and expressed as a percentage of the total cells counted (>200 for each sample). The killing of cells by ischemia was quantified as percentage of the vital cells at the beginning of each experiment (78-90% of total, mean=82±1% n=24). The small percentage of cells ( 18%) that were non-viable at the beginning of the experiment were mostly rounded and had been damaged as a known consequence of the enzymatic isolation process. Mitra, R., et al., “A uniform enzymatic method for dissociation of myocytes from hearts and stomachs of vertebrates”, Am. J. Physiol, 1985, 249: […]-[…]. Individual experiments in each of four groups were performed on cells isolated from different hearts. In the control group (Cont), cells were pelleted and sampled at the 60 min and 120 min. For the diazoxide-treated group (Diazo), 50 μM of diazoxide was added into the solution 15 min before the pelleting. In the third group (5-HD), 100 μM of 5-HD was added into the cell suspension 20 min prior to pelleting. Cells in the Diazo+5HD group were treated the same as in the third group except that 50 μM of diazoxide was added into the cell suspension 15 min before pelleting. Once applied, drugs were not washed out, and thus were present throughout the period of simulated ischemia.

[4] = tested on: mitochondria of ventricular myocytes; type: cell-based, rabbit; conditions: sequential exposure diazoxide, DNP, CN; FIG. 8
Protocol: In the following Examples, Confocal images were obtained using a Diaphot 300 inverted fluorescence microscope with a PCM-2000 confocal scanning attachment (Nikon, Inc.). Fluorescence was excited by the 488 nm line of an argon laser and the emission at 505-535 nm was recorded. A time series of images was collected at intervals of ˜10 sec and baseline, diazoxide, DNP and CN images were enhanced by averaging 8-10 sequential images having stable mean fluorescence intensities during the exposure to each agent.
To localize mitochondria, cells were loaded with 100 nM TMRE, which distributes into negatively charged cellular compartments, for 10 min., (Lemasters, J. J., et al., “Measurement of electrical potential, pH, and free calcium ion concentration in mitochondria of living cells by laser scanning confocal microscopy”, in Anonymous: Methods in Enzymology., New York, Academic Press, 1995, pp 429-417). TMRE fluorescence was excited with the 535 nm line of a helium neon laser and recorded at greater than 605 nm. A pseudocolor palette was applied to visualize the relative increase in mitochondrial flavoprotein oxidation state.
Images were analyzed on a personal computer using the software program ImageTool (University of Texas Health Sciences Center in San Antonio). All the recordings were performed at room temperature (21-22° C.).

[5] = tested on: intact hearts; conditions: Paucek et al. 1997; cited from earlier work

## CC(N/C(=N\C#N)Nc1ccncc1)C(C)(C)C (centres unmarked) [pinacidil]
[1]; pinacidil 100 μM, measured at 0 mV, FIG. 6B
  sarcolemmal IKATP: 0.74±0.54 nA
[2]; pinacidil 100 μM, FIG. 6A
  mitochondrial oxidation: 35±8%

## CCCCCC(O)CCCC(=O)O.[Na] (centres unmarked) [5-HD, 5-hydroxydecanoic acid sodium]
[3]; 100 μM 5-HD
  block of the protection by diazoxide: completely blocked
[1]
  activation of IKATP: did not activate
[2]; 100 μM 5-HD in the presence of diazoxide, FIG. 3
  attenuation of the oxidative effect of diazoxide: about half
[2]; FIG. 2a
  block of flavoprotein oxidation induced by diazoxide: reversibly blocks
[2]; diazoxide in the presence of 500 μM 5-HD, FIG. 3
  flavoprotein oxidation, % of the DNP value: 8±3%

## COc1ccc(Cl)cc1C(=O)NCCc1ccc(S(=O)(=O)NC(=O)NC2CCCCC2)cc1 [Glybenclamide]
[3]; 1 μM glybenclamide, data not shown
  block of the protection from diazoxide: blocked the protection

## CC1=NS(=O)(=O)c2cc(Cl)ccc2N1 [diazoxide]
[3]; 1 h, 60 min simulated ischemia
  cytotoxicity at 50 µM: 18 ± 3%
[3]; 2 h, 120 min simulated ischemia
  cytotoxicity at 50 µM: 23 ± 4%
[3]; cellular ischemia model
  protection of ventricular myocytes compared with preconditioning: to the same extent as preconditioning
[4]
  flavoprotein fluorescence, confocal images: increased fluorescence in strips parallel to the myofibril orientation
[5]
  cardioprotective EC25: 11 µM
[1]; 100 μM, FIG. 1B
  activation of IKATP / membrane currents: did not activate; also recorded: unchanged
[1]
  activation of IKATP: did not activate
[2]; 100 μM, first exposure DIAZO(1), FIG. 3
  mitochondrial oxidation, % of the DNP value: 48±3%
[2]; 100 μM, FIG. 1A
  oxidation of the flavoproteins (flavoprotein fluorescence): induced reversible oxidation
[2]; Oryctolagus cuniculus, Ventricular myocyte, FIG. 5, 5-6 cells per point, read-out: EC50 to induce mitochondrial oxidation
  EC50: 27 µM
[2]; diazoxide exposure in the same cell as pinacidil
  mitochondrial oxidation: 41±5%
[2]; second exposure DIAZO(2) after washout, same cells, FIG. 3
  flavoprotein oxidation, % of the DNP value: 43±5%
